Where two headings read alike, the source gives them in different places.
Assays:
IL-6 = IL-6 inhibition in LPS-stimulated human peripheral blood mononuclear cells (HTRF); conditions: Homo sapiens, PBMC; for EC50: 22 h; for inhibition at 10 µM: read-out: percentage in parentheses after EC50 >10
DYRK1A kinase = DYRK1A kinase (Homo sapiens, UniProt Q13627); experiment: DYRK1A kinase activity (Ser/Thr 18 peptide Z-lyte FRET assay); format: biochemical; conditions: recombinant DYRK1A, 30 μM ATP, one hour at room temperature;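 note: kinase activity read as coumarin/fluorescein emission ratio after development step, with unphosphorylated and phosphorylated peptide forms setting 0% and 100% controls, values from dose-response curves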
GSK3β kinase = GSK3β kinase (Homo sapiens, UniProt P49841); experiment: GSK3β kinase activity (Ser/Thr 09 peptide Z-lyte FRET assay); format: biochemical; conditions: recombinant kinase, 46 μM ATP, one hour at room temperature; read-out: EC50
GSK3β kinase, sequence (P49841 whole entry): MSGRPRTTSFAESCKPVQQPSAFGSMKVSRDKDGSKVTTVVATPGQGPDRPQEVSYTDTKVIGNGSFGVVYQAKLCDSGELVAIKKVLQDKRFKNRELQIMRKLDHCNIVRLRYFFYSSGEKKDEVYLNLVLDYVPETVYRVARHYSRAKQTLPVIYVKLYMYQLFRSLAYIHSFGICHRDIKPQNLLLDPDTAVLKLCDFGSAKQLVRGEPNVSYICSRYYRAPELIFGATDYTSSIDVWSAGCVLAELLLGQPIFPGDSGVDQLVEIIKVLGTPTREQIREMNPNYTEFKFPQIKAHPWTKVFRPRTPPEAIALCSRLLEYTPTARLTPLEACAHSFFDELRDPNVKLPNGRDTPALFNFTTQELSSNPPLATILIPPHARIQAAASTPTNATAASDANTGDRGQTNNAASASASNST

[1] = tested on: Wnt-responsive Sp5-Luc reporter in SW480 colon carcinoma cells; experiment: Screening assay for Wnt activity (Sp5-Luc reporter gene assay); conditions: Homo sapiens; for EC50: SW480; for inhibition at 10 µM: SW480, read-out: percent inhibition at 10 μM
[2] = tested on: Tau phosphorylation at Ser396 (pSer396); experiment: Tau phosphorylation at Ser396 (pSer396) in SH-SY5Y cells, ELISA / western blot; format: cell-based, human; conditions: Homo sapiens;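 note: decrease in pSer396 Tau measured in lysates of treated cells by colorimetric ELISA or chemiluminescent western blot, same pSer396 antibody for both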
Procedure: Two days before treatment, cells were seeded onto 96 well plates at 5×10^4 cells/well.
The above synthesized compounds were screened using the cell assay procedure to assess decrease Tau phosphorylation at Ser396 (pSer396) described below.
Cells were lysed with RIPA buffer complemented with phosphatase and protease inhibitors then lysates were spun down at 12,000 g for 10 min to remove any cellular debris.

[3] = tested on: SW480 colon carcinoma cells; experiment: Cell viability assay (CellTiter-Glo); conditions: Homo sapiens; for EC50: SW480, 96 h; for inhibition at 10 µM: SW480, read-out: percent inhibition at 10 μM
[4] = tested on: α-smooth muscle actin (aSMA) positive LL29 cells; experiment: Inhibition of the fibrotic process: αSMA staining in TGF-β1 treated LL29 fibroblasts from IPF patients; conditions: Homo sapiens, Fibroblast; for EC50: 96 h; for inhibition at 10 µM: read-out: percentage in parentheses after EC50 >10
[5] = tested on: secreted cytokines TNFα, IL-6 and KC-GRO; experiment: Secreted cytokines in Lipopolysaccharide-stimulated BV-2 cells (Table 9 does not say which cytokine); format: cell-based, mouse; conditions: Mus musculus, BV-2, 5 h; read-out: EC50
[6] = SH-SY5Y cells, overnight (16-18 h), read-out: pSer396 Tau EC50

| EC50 (IL-6) [µM] | EC50 (DYRK1A kinase) [nM] | EC50 (GSK3β kinase) [nM] | EC50 [1] [µM] | EC50 [2, 6] [nM] | EC50 [3] [µM] | EC50 [5] [nM] | Compound | inhibition at 10 µM (IL-6) [%] | inhibition at 10 µM [3] [%] | EC50 [4] [nM] | inhibition at 10 µM [4] [%] | inhibition at 10 µM [1] [%] | EC50 ([2]; SH-SY5Y, read-out: EC50 in the Tau assay) [nM] |
| --- | --- | --- | --- | --- | --- | --- | --- | --- | --- | --- | --- | --- | --- |
| > 10 | 364 | 560 | 0.189 | 1500 | > 10 | – | COC1CCN(CC(=O)Nc2cc3nc(-c4cn(C)nn4)ccc3cn2)CC1 [Compound 358, 2-(4-Methoxypiperidin-1-yl)-N-(2-(1-methyl-1H-1,2,3-triazol-4-yl)-1,6-naphthyridin-7-yl)acetamide] | 2 | 38 | > 10000 | 9.8 | – | – |
| > 10 | 50 | 156 | > 10 | 10000 | > 10 | – | Cc1ncc(-c2ccc3cnc(NC(=O)Cn4ccnc4)cc3n2)o1 [Compound 589, 2-(1H-Imidazol-1-yl)-N-(2-(2-methyloxazol-5-yl)-1,6-naphthyridin-7-yl) acetamide] | 5.9 | 22.9 | > 10000 | 41.6 | 7.8 | – |
| > 10 | 69 | 195 | > 10 | 1700 | > 10 | – | C[C@H]1CCCN1CC(=O)Nc1ncc2ccc(-c3cnn(C)c3)cc2n1 [Compound 954, (S)—N-(7-(1-Methyl-1H-pyrazol-4-yl)quinazolin-2-yl)-2-(2-methylpyrrolidin-1-yl)acetamide] | 5.7 | 45.1 | 2140 | – | 29.6 | – |
| > 10 | 43 | 17 | 9.71 | 902 | > 10 | – | COC1CCN(CC(=O)Nc2ncc3ccc(-c4cn(C)nn4)cc3n2)CC1 [Compound 1264, 2-(4-Methoxypiperidin-1-yl)-N-(7-(1-methyl-1H-1,2,3-triazol-4-yl)quinazolin-2-yl)acetamide] | 7.9 | 27.8 | > 10000 | 5.7 | – | – |
| > 10 | 52 | 94 | 1.17 | 168 | > 10 | – | CC(C)OCCC(=O)Nc1ncc2ccc(-c3cncn3C)cc2n1 [Compound 1322, 3-Isopropoxy-N-(7-(1-methyl-1H-imidazol-5-yl)quinazolin-2-yl)propanamide] | 5.9 | 22.2 | 2000 | – | – | – |
| > 10 | 14 | 7400 | > 10 | – | 5.96 | 5100 | CN1CCC(Oc2cccc(C(=O)Nc3cc4cc(-c5cnco5)ncc4cn3)c2)CC1 [Compound 4218, 3-((1-Methylpiperidin-4-yl)oxy)-N-(6-(oxazol-5-yl)-2,7-naphthyridin-3-yl) benzamide] | 3.7 | – | 2980 | – | 24.9 | – |
| > 10 | 6 | 1620 | 4.06 | – | 2.46 | 626 | CN1CCN(c2cc(C(=O)Nc3cc4cc(-c5cncs5)ncc4cn3)ccn2)CC1 [Compound 4257, 2-(4-Methylpiperazin-1-yl)-N-(6-(thiazol-5-yl)-2,7-naphthyridin-3-yl) isonicotinamide] | 5.3 | – | 2520 | – | – | – |
| > 10 | 48 | 828 | > 10 | – | > 10 | > 10000 | CO[C@H]1CC[C@H](C(=O)Nc2cc3cc(-c4nnc(C)s4)ncc3cn2)CC1 [Compound 4332, trans-4-Methoxy-N-(6-(5-methyl-1,3,4-thiadiazol-2-yl)-2,7-naphthyridin-3-yl)cyclohexane-1-carboxamide] | 0 | 16.5 | > 10000 | 23.6 | 9.6 | – |
| > 10 | 3 | 3780 | 2.82 | – | 3.15 | 40 | Nc1cncc(-c2cc3cc(NC(=O)c4ccc(OC5CCNCC5)cc4)ncc3cn2)c1 [Compound 4431, N-(6-(5-Aminopyridin-3-yl)-2,7-naphthyridin-3-yl)-4-(piperidin-4-yloxy) benzamide] | 3.6 | – | 2490 | – | – | – |
| 9.85 | 12 | > 10000 | 8.48 | – | 5.15 | 9500 | CN1CCN(c2cc(C(=O)Nc3cc4cc(-c5ccc(N)nc5)ncc4cn3)ccn2)CC1 [Compound 4434, N-(6-(6-Aminopyridin-3-yl)-2,7-naphthyridin-3-yl)-2-(4-methylpiperazin-1-yl)isonicotinamide] | – | – | 1600 | – | – | – |
| 3.26 | 10 | > 10000 | 0.718 | – | 0.513 | 1300 | CN1CCC(n2cc(C(=O)Nc3cc4cc(-c5cncc6[nH]ccc56)ncc4cn3)cn2)CC1 [Compound 4523, N-(6-(1H-Pyrrolo[2,3-c]pyridin-4-yl)-2,7-naphthyridin-3-yl)-1-(1-methylpiperidin-4-yl)-1H-pyrazole-4-carboxamide] | – | – | 2380 | – | – | – |
| 3.43 | 3 | > 10000 | 0.278 | – | 0.952 | 47 | CN1CCC(Nc2cc(C(=O)Nc3cc4nc(-c5cnn(C)c5)ccc4cn3)ccn2)CC1 [Compound 4538, N-(2-(1-Methyl-1H-pyrazol-4-yl)-1,6-naphthyridin-7-yl)-2-((1-methylpiperidin-4-yl)amino)isonicotinamide] | – | – | 708 | – | – | – |
| > 10 | 2 | 2230 | 0.301 | – | 0.782 | 80 | CN1CCN(c2ncc(C(=O)Nc3cc4nc(-c5cnn(C)c5)ccc4cn3)s2)CC1 [Compound 4539, N-(2-(1-Methyl-1H-pyrazol-4-yl)-1,6-naphthyridin-7-yl)-2-(4-methylpiperazin-1-yl)thiazole-5-carboxamide] | 37.4 | – | 1100 | – | – | – |
| > 10 | 19 | 785 | > 10 | – | > 10 | 400 | O=C(Nc1cc2nc(-c3cnco3)ccc2cn1)[C@H]1CC[C@H](CO)CC1 [Compound 4548, trans-4-(Hydroxymethyl)-N-(2-(oxazol-5-yl)-1,6-naphthyridin-7-yl) cyclohexane-1-carboxamide] | 3.2 | 29.8 | > 10000 | 50 | – | – |
| 2.99 | 5 | 4240 | 1.02 | – | 1.04 | 400 | O=C(Nc1cc2nc(-c3cnco3)ccc2cn1)c1ccc(OC2CCNCC2)cc1 [Compound 4551, N-(2-(Oxazol-5-yl)-1,6-naphthyridin-7-yl)-4-(piperidin-4-yloxy)benzamide] | – | – | 325 | – | – | – |
| > 10 | 3 | 2180 | 3.26 | – | 5.62 | 128 | CN1CCN(c2ncc(C(=O)Nc3ncc4ccc(-c5cnn(C)c5)cc4n3)s2)CC1 [Compound 4570, N-(7-(1-Methyl-1H-pyrazol-4-yl)quinazolin-2-yl)-2-(4-methylpiperazin-1-yl) thiazole-5-carboxamide] | 18.4 | – | > 10000 | 5.5 | – | – |
| > 10 | 131 | 34 | > 10 | – | > 10 | 2500 | Cc1nnc(-c2ccc3cnc(NC(=O)CN4C[C@@H]5C[C@H]4CO5)nc3c2)s1 [Compound 4593, 2-((1S,4S)-2-Oxa-5-azabicyclo[2.2.1]heptan-5-yl)-N-(7-(5-methyl-1,3,4-thiadiazol-2-yl)quinazolin-2-yl)acetamide] | 4.8 | 27.4 | > 10000 | 41.4 | 32.8 | – |
| > 10 | 27 | 7820 | 3.83 | – | 2.67 | 275 | Cc1cn2c(n1)CN(C(=O)Nc1cc3cc(-c4cnco4)cnc3cn1)CC2 [Compound 4615] | 5.8 | – | > 10000 | 35.6 | – | – |
| > 10 | 40 | 4630 | > 10 | – | > 10 | 1400 | Cc1ncc(-c2cnc3cnc(NC(=O)C4CCN(C5COC5)CC4)cc3c2)s1 [Compound 4622, N-(3-(2-methylthiazol-5-yl)-1,7-naphthyridin-6-yl)-1-(oxetan-3-yl)piperidine-4-carboxamide] | 2.3 | 27.9 | > 10000 | 29.4 | 50 | – |
| – | – | – | – | – | – | – | COc1ccc2c(c1)[nH]c1c(C)nccc12 [Harmine, reference compound] | – | – | – | – | – | > 10000 |

— patent US10703748B2, “Diazanaphthalen-3-yl carboxamides and preparation and use thereof” (Samumed, LLC, priority 2017, dated 2020)
